A word on the melting point: it is the temperature, or range, at which the solid turns liquid. As a reminder, the Ki is the equilibrium dissociation constant of an inhibitor or competing ligand from its target.

The structures appear in SMILES notation. Counter-ions that a name gives are not always drawn.

Data set [1] deals with T1, rAde1R (Rattus norvegicus, UniProt Q7TN49).
T1 construct: expressed in transfected cells; host or cells: 1321N1 human astrocytoma cells
T1 sequence (Q7TN49 1-304): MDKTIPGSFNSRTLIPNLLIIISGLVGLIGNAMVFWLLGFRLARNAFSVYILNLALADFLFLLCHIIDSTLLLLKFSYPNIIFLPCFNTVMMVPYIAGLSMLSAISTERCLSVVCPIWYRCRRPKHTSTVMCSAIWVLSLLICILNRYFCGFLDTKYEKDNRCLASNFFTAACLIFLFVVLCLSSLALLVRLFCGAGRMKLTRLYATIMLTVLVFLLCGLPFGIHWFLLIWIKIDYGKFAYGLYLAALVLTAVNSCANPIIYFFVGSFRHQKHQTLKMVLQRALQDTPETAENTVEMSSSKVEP
Conditions: literature, Gorzalka et al. 2005; cited from earlier work.

Another data set addresses T2, Rat adenine receptor (Rattus norvegicus, UniProt Q7TN49).
T2 construct: 50 μg of rat cortical membrane preparations; from tissue; host or cells: rat brain cortex membranes
T2 sequence (Q7TN49 1-304): T1 sequence (Q7TN49 1-304)
As to the kind of experiment: Radioligand binding assay, [3H]adenine competition, rat cortical membrane preparations. The conditions noted are these: rat cortex membranes, vs. 10 nM [3H]adenine, mean ± SEM. As to the method:
(§1) Competition assays with [8-^3H]adenine (27 Ci/mmol; GE Healthcare) were carried out as described previously (Gorzalka et al., Mol. Pharmacol. 2005, 67, 955-964). In brief, 50 μg of rat cortical membrane preparations or 100 μg of protein (HEK293 (human embryonic kidney) cell membrane preparations) was incubated with 10 nM [8^3H]adenine in 50 mM Tris-HCl buffer, pH 7.4, in a total volume of 200 μl. Inhibition curves were determined using 6 to 9 different concentrations of selected adenine derivative. Three separate experiments were performed each in triplicate. Nonspecific binding was determined by using 100 μM adenine. Incubations were carried out for 1 h at room temperature and terminated by rapid filtration through GF/B glass fiber filters (Whatman, Dassel, Germany). Filters were washed three times with ice-cold 50 mM Tris-HCl buffer, pH 7.4, 3 ml each. Filter-bound radioactivity was measured by liquid scintillation counting.
(§2) Data points represent means±SEM of three separate experiments each performed in triplicate.

In another data set the test system is Human adenine receptor. As to the kind of experiment: Radioligand binding assay, [3H]adenine competition, HEK293 cell membrane preparations. The conditions noted are these: HEK293 cell membranes, vs. 10 nM [3H]adenine, mean ± SEM. As to the method: as §1, §2
For data set [2], the target named is T1, rAde1R. Description: cAMP-dependent luciferase assay, inhibition of isoproterenol-stimulated cAMP accumulation. It is filed as cell-based. Conditions: for effect on isoproterenol-induced cAMP accumulation: 3 nM isoproterenol, n=3. The protocol: 1321N1 cells stably expressing the rAde1R were cultured in DMEM supplemented with 10% (v/v) FCS, L-glutamine (2 mM), penicillin (100 U/ml), streptomycin (100 U/ml) and 400 μg/ml G 418 at 37° C. under a humidified atmosphere containing 5% CO2. Cells were cultured in 75 cm^2 flasks (3.2×10^5) for 24 h without antibiotics so that they were 90-95% confluent before transfection. The cAMP responsive reporter plasmid (pCER-luc) or serum response element (pSRE-luc) was transfected into 1321N1 cells expressing rat adenine receptors using Lipofectamine 2000 as a transfection reagent.
Reporter cells were seeded at a density of […] cells/well in a 24-well plate 18-20 hr prior to assay. After removal of culture medium, cells were washed twice with Hanks' balanced salt solution (containing 20 mM HEPES, pH 7.3). Adenine and selected adenine derivatives were diluted in Hanks' balanced salt solution containing 3 nM isoproterenol and then incubated with reporter cells in the same buffer for 3 h at 37° C. The reaction was stopped by removal of the reaction buffer and the luciferase expression was determined using Bright-Glo™ Luciferase assay system (Promega) as described in the kit protocol. Plates were shaken for 2 min to ensure complete lysis of cells. Then the total volume from each well was transferred to a white 96-well plate (Greiner bio-one). Luminescence was determined using a NOVOstar microplate reader (BMG labtech); each well was counted for 2 s at 20° C.

Where [3] appears, read: 10 μM compound, 1321N1 cells expressing rAde1R.

The compound `CNCCC(=O)Nc1ncnc2[nH]cnc12` (as salt: hydrochloride) [Example 9, 3-Methyl-amino-N(9H-purin-6-yl)propionamide dihydrochloride] displayed a melting point of 213 °C.

On to `CCNCCC(=O)Nc1ncnc2[nH]cnc12` (as salt: hydrochloride) [Example 10, 3-Ethyl-amino-N(9H-purin-6-yl)propionamide dihydrochloride], for which the melting point was found to be 216 °C.

As to `CCCNCCC(=O)Nc1ncnc2[nH]cnc12` (as salt: hydrochloride) [Example 11, 3-Propyl-amino-N(9H-purin-6-yl)propionamide dihydrochloride], the melting point is 171 °C.

On to `O=C(CCNCc1ccccc1)Nc1ncnc2[nH]cnc12` (as salt: hydrochloride) [Example 12, 3-Benzyl-amino-N(9H-purin-6-yl)propionamide dihydrochloride], for which the melting point came out at 197 °C.

Turning to `O=C(CCNCCc1ccccc1)Nc1ncnc2[nH]cnc12` (as salt: hydrochloride) [Example 13, 3-Phenethyl-amino-N(9H-purin-6-yl)propionamide dihydrochloride], the melting point was determined as 196 °C.

Consider `Cn1cnc2ncnc-2c1N` [1-methyl-adenine], for which, at rAde1R [1], the “values at the rAde1R” value is given as “micromolar range”.

For `Cn1cnc(N)c2ncnc1-2` [3-methyl-adenine], the “values at the rAde1R” value at rAde1R [1] is reported as “micromolar range”.

In the case of `Cn1cnc2ncnc(N)c21` [7-methyl-adenine], the “values at the rAde1R” value on rAde1R [1] is “micromolar range”.

Turning to `Cn1cnc2c(N)ncnc21` [9-methyl-adenine], at rAde1R [1], the “values at the rAde1R” value is “micromolar range”.

`CN(CCC(=O)Nc1ncnc2[nH]cnc12)C(=O)OC(C)(C)C` [Example 1, 3-(tert-Butyloxycarbonyl-methyl-amino)-N(9H-purin-6-yl)propionamide] showed a melting point of 205 °C. The compound also returned an inhibitory constant (Ki) on Rat adenine receptor of 0.949 ± 0.135 µM. In the data set with Human adenine receptor, the Ki is 5.47 ± 1.28 µM. The “effect on isoproterenol-induced cAMP accumulation” value at rAde1R [2] (setting [3]) is reported as “adenine receptor agonists”.

`CCN(CCC(=O)Nc1ncnc2[nH]cnc12)C(=O)OC(C)(C)C` [Example 2, 3-(tert-Butyloxycarbonyl-ethyl-amino)-N(9H-purin-6-yl)propionamide] showed a melting point of 198 °C. Besides, on Rat adenine receptor, affinity was put at a Ki of 2.93 ± 0.4 µM. This compound came in with a Ki in the data set with Human adenine receptor of 7.7 ± 2.4 µM.

For the compound `CCCN(CCC(=O)Nc1ncnc2[nH]cnc12)C(=O)OC(C)(C)C` [Example 3, 3-(tert-Butyloxycarbonyl-propyl-amino)-N(9H-purin-6-yl)propionamide], the melting point was found to be 205 °C. The compound further came in with a Ki on Rat adenine receptor of 11.8 ± 0.8 µM. The compound further had a Ki in the data set on Human adenine receptor of at least 100 µM.

For the compound `CCCCCCN(CCC(=O)Nc1ncnc2[nH]cnc12)C(=O)OC(C)(C)C` [Example 4, 3-(tert-Butyloxycarbonyl-hexyl-amino)-N(9H-purin-6-yl)propionamide], the melting point amounted to 185 °C. This compound also displayed an inhibitory constant (Ki) at Rat adenine receptor of 1.56 ± 0.026 µM. This compound also yielded a Ki in the data set on Human adenine receptor of 19.7 ± 0.7 µM.

For the compound `CC(C)(C)OC(=O)N(CCC(=O)Nc1ncnc2[nH]cnc12)Cc1ccccc1` [Example 5, 3-(tert-Butyloxycarbonyl-benzyl-amino)-N(9H-purin-6-yl)propionamide], the melting point is 202 °C. This compound also had a Ki at Rat adenine receptor of 9.02 ± 0.55 µM. For the same compound, the affinity in the data set with Human adenine receptor corresponds to a Ki of 42.1 ± 1.8 µM.

The compound `CC(C)(C)OC(=O)N(CCC(=O)Nc1ncnc2[nH]cnc12)CCc1ccccc1` [Example 6, 3-(tert-Butyloxycarbonyl-phenethyl-amino)-N(9H-purin-6-yl)propionamide] gave a melting point of 162 °C. The compound further gave a Ki at Rat adenine receptor of 9.07 ± 0.8 µM. This compound had an inhibition constant (Ki) with Human adenine receptor of at least 100 µM.

`CC(C)(C)OC(=O)NCCC(=O)Nc1ncnc2[nH]cnc12` [Example 7, 3-tert-Butyloxycarbonylamino-N(9H-purin-6-yl)propionamide] had a melting point of 191 °C. Besides, at Rat adenine receptor, the Ki was determined as 0.334 ± 0.031 µM. In the data set with Human adenine receptor, this compound displayed a Ki of 0.719 ± 0.081 µM.

For `CC(C)(C)OC(=O)NCCCC(=O)Nc1ncnc2[nH]cnc12` [Example 8, 4-tert-Butyloxycarbonylamino-N(9H-purin-6-yl)butyramide], the melting point was 223 °C. For the same compound, the Ki at Rat adenine receptor was found to be 3.39 ± 0.56 µM. For the same compound, the affinity with Human adenine receptor, expressed as Ki, was 2.68 ± 0.37 µM.

Consider `CNCCC(=O)Nc1ncnc2[nH]cnc12` [Example 9, 3-Methyl-amino-N(9H-purin-6-yl)propionamide dihydrochloride], for which the Ki at Rat adenine receptor was 0.292 ± 0.056 µM; in the data set on Human adenine receptor, 1.83 ± 0.09 µM. At rAde1R [2] (setting [3]), the “effect on isoproterenol-induced cAMP accumulation” value is listed as “no significant effect”. Moreover, on rAde1R [2] (calculated from shift of adenine curve by 10 μM compound 9), the Kb was 165 nM. In addition, at rAde1R [2] (compound 9 at 10 μM, 1321N1 cells expressing rAde1R, FIG. 5), the “effect on concentration-response curve of adenine” value is “shifted the concentration-response curve of adenine to the right proving that it is an antagonist”.

`CCNCCC(=O)Nc1ncnc2[nH]cnc12` [Example 10, 3-Ethyl-amino-N(9H-purin-6-yl)propionamide dihydrochloride]: the inhibition constant (Ki) on Rat adenine receptor amounted to 0.508 ± 0.163 µM; with Human adenine receptor, 1.34 ± 0.48 µM. For the same compound, the “effect on isoproterenol-induced cAMP accumulation” value at rAde1R [2] (setting [3]) is given as “adenine receptor agonists”.

On to `CCCNCCC(=O)Nc1ncnc2[nH]cnc12` [Example 11, 3-Propyl-amino-N(9H-purin-6-yl)propionamide dihydrochloride], for which the Ki on Rat adenine receptor stood at 1.29 ± 0.24 µM; in the data set on Human adenine receptor, 6.85 ± 2.17 µM.

For the compound `O=C(CCNCc1ccccc1)Nc1ncnc2[nH]cnc12` [Example 12, 3-Benzyl-amino-N(9H-purin-6-yl)propionamide dihydrochloride], the Ki stood at 0.852 ± 0.131 µM on Rat adenine receptor and 3.27 ± 1.23 µM in the data set with Human adenine receptor. The “effect on isoproterenol-induced cAMP accumulation” value at rAde1R [2] (setting [3]) is listed as “adenine receptor agonists”.

Consider `O=C(CCNCCc1ccccc1)Nc1ncnc2[nH]cnc12` [Example 13, 3-Phenethyl-amino-N(9H-purin-6-yl)propionamide dihydrochloride], for which the Ki is 2.12 ± 0.07 µM at Rat adenine receptor and 6.93 ± 0.83 µM with Human adenine receptor.

Regarding `Cl.NCCC(=O)Nc1ncnc2[nH]cnc12` [Example 14, 3-Amino-N(9H-purin-6-yl)propionamide hydrochloride], the melting point was 204 °C. At Rat adenine receptor, this compound showed a Ki of 0.0215 ± 0.0056 µM. This compound registered a Ki in the data set on Human adenine receptor of 0.0447 ± 0.0034 µM. Also, the “effect on isoproterenol-induced cAMP accumulation” value on rAde1R [2] (1 μM compound, 1321N1 cells expressing rAde1R) is given as “adenine receptor agonists”. At rAde1R [2] (1321N1 cells expressing rAde1R, FIG. 4), the “inhibition of isoproterenol-stimulated cAMP accumulation by different concentrations” value is “concentration-dependent inhibition”.

`Cl.NCCCC(=O)Nc1ncnc2[nH]cnc12` [Example 15, 4-Amino-N(9H-purin-6-yl)butyramide hydrochloride] returned a melting point of 199 °C. Also, the Ki at Rat adenine receptor amounted to 0.0805 ± 0.003 µM. This compound registered a Ki in the data set with Human adenine receptor of 0.149 ± 0.045 µM. Further, the “effect on isoproterenol-induced cAMP accumulation” value at rAde1R [2] (setting [3]) is on record as “adenine receptor agonists”.

(Values after patent US20110288106A1, “ADENINE RECEPTOR LIGANDS” (Rheinische Friedrich-Wilhelms-Universitaet Bonn …, priority 2008, published 2011).)
